Test results: patent publication US6365621B1, “Remedies or preventives for intractable epilepsy” (Pharmaceutical Co., Ltd., priority 1998, dated 2002)

Tested on: kainate-induced amygdala seizures
Assay: Local cerebral glucose metabolism during kainate-induced amygdala seizures ([14C]deoxyglucose autoradiography)
Type: in vivo, rat
Set-up: key to Effect on local cerebral glucose metabolism rate: → : no change; →↓ : decreased in a low degree; ↓ : decreased in a moderate degree; ↓↓ : decreased in a high degree
Settings: for Local glucose metabolism rate: average ± standard error
From the text: [Method for measuring cerebral glucose metabolism] Cannulas for injection of kainic acid were inserted in an assigned position of the left side of the amygdala of 18 Wistar male rats and fixed through the same procedure as described in Example I-1. Seven days after operation, polyethylene catheters were set and fixed to the femoral artery and vein of one side under halothane anesthesion, and the lower half of the body of each rat were put in plaster so as to prevent removal of the catheter. Upon awakening from narcotism, the same kainic acid solution as described in I-1 (1 μL) was injected through the cannula so as to induce seizures. After elapse of 90 minutes from injection of kainic acid, when limbic system seizures were in status epilepticus, 50, 100, or 200 mg/kg of nefiracetam was intravenously injected, whereas saline was injected into rats of the control group. After 60 minutes, 25 μCi of [^14C] deoxyglucose was intravenously injected. After the tracer was injected, blood was continuously collected from the artery for 45 minutes. When collection was finished, heads were cut off. Brains were extirpated immediately and instantly frozen in by hexane (−25° C.) cooled by dry ice. The frozen brain was sliced in a cryostat (−20° C.) so as to produce coronary, serial-frozen sections having a thickness of 20 μm. Subsequently, the sections were dried and put on high-speed X-ray film with a [^14C] standard, followed by seven-day-exposure in a cassette to thereby obtain an autoradiogram. The blood samples collected from the artery were centrifuged so as to collect plasma, the [^14C] radioactivity was measured by use of a liquid scintillation counter, and glucose concentration in plasma was measured.
The optical density of the intracerebral structure of each section was measured from the autoradiogram by use of a densitometer, and a glucose utilization rate of each intracerabral structure was calculated by use of the formula of Sokoloff (Sokoloff, L., Reivich, M., Kennedy, C., et al., J. Neurochemistry, 28: 897-916, 1977) based on [^14C] radioactivity and glucose concentration in plasma. The obtained data were compared quantitatively and statistically with those of the control group, through the Mann-Whitney U-test.

[1] = Amygdala, focal side, 100 mg/kg i.v.
[2] = Amygdala, non-focal side, 100 mg/kg i.v.
[3] = Brain stem reticular formation, focal side, 100 mg/kg i.v.
[4] = Brain stem reticular formation, non-focal side, 100 mg/kg i.v.
[5] = Candatum-putamen, focal side, 100 mg/kg i.v.
[6] = Candatum-putamen, non-focal side, 100 mg/kg i.v.
[7] = Cerebellar cortex, focal side, 100 mg/kg i.v.
[8] = Cerebellar cortex, non-focal side, 100 mg/kg i.v.
[9] = Corpus callosum, focal side, 100 mg/kg i.v.
[10] = Corpus callosum, non-focal side, 100 mg/kg i.v.
[11] = Frontal lobe cortex, focal side, 100 mg/kg i.v.
[12] = Frontal lobe cortex, non-focal side, 100 mg/kg i.v.
[13] = Hypothalamaus, focal side, 100 mg/kg i.v.
[14] = Hypothalamaus, non-focal side, 100 mg/kg i.v.
[15] = Occipital lobe cortex, focal side, 100 mg/kg i.v.
[16] = Occipital lobe cortex, non-focal side, 100 mg/kg i.v.
[17] = Parietal lobe cortex, focal side, 100 mg/kg i.v.
[18] = Parietal lobe cortex, non-focal side, 100 mg/kg i.v.
[19] = Sensorimotor area cortex, focal side, 100 mg/kg i.v.
[20] = Sensorimotor area cortex, non-focal side, 100 mg/kg i.v.
[21] = Septal area, focal side, 100 mg/kg i.v.
[22] = Septal area, non-focal side, 100 mg/kg i.v.
[23] = Substantia nigra, focal side, 100 mg/kg i.v.
[24] = Substantia nigra, non-focal side, 100 mg/kg i.v.
[25] = Temporal lobe cortex, focal side, 100 mg/kg i.v.
[26] = Temporal lobe cortex, non-focal side, 100 mg/kg i.v.
[27] = Thalamus, focal side, 100 mg/kg i.v.
[28] = Thalamus, non-focal side, 100 mg/kg i.v.
[29] = hippocampus, focal side, 100 mg/kg i.v.
[30] = hippocampus, non-focal side, 100 mg/kg i.v.

Cc1cccc(C)c1NC(=O)CN1CCCC1=O [nefiracetam, N-(2,6-dimethylphenyl)-2-(2-oxo-1-pyrrolidinyl)acetamide]
Regions with promoted glucose metabolism (200 mg/kg i.v.): the amygdala on the focal side is the only region where the metabolism is prompted
Effect on local cerebral glucose metabolism rate (Amygdala, focal side, 50 mg/kg i.v.): →
Effect on local cerebral glucose metabolism rate [1]: →
Local glucose metabolism rate [1]: 201 ± 4.5 µmol/100 g/min
Effect on local cerebral glucose metabolism rate (Amygdala, focal side, 200 mg/kg i.v.): ↓
Effect on local cerebral glucose metabolism rate (Amygdala, non-focal side, 50 mg/kg i.v.): →
Effect on local cerebral glucose metabolism rate [2]: ↓↓
Local glucose metabolism rate [2]: 66.2 ± 3.8 µmol/100 g/min
Effect on local cerebral glucose metabolism rate (Amygdala, non-focal side, 200 mg/kg i.v.): ↓↓
Effect on local cerebral glucose metabolism rate (Brain stem reticular formation, focal side, 50 mg/kg i.v.): →
Effect on local cerebral glucose metabolism rate [3]: →↓
Local glucose metabolism rate [3]: 52.9 ± 3.5 µmol/100 g/min
Effect on local cerebral glucose metabolism rate (Brain stem reticular formation, focal side, 200 mg/kg i.v.): ↓
Effect on local cerebral glucose metabolism rate (Brain stem reticular formation, non-focal side, 50 mg/kg i.v.): →
Effect on local cerebral glucose metabolism rate [4]: ↓
Local glucose metabolism rate [4]: 49.6 ± 3.3 µmol/100 g/min
Effect on local cerebral glucose metabolism rate (Brain stem reticular formation, non-focal side, 200 mg/kg i.v.): ↓
Effect on local cerebral glucose metabolism rate (Candatum-putamen, focal side, 50 mg/kg i.v.): →
Effect on local cerebral glucose metabolism rate [5]: →
Local glucose metabolism rate [5]: 207 ± 16.5 µmol/100 g/min
Effect on local cerebral glucose metabolism rate (Candatum-putamen, focal side, 200 mg/kg i.v.): ↓
Effect on local cerebral glucose metabolism rate (Candatum-putamen, non-focal side, 50 mg/kg i.v.): →↓
Effect on local cerebral glucose metabolism rate [6]: ↓↓
Local glucose metabolism rate [6]: 73.1 ± 2.5 µmol/100 g/min
Effect on local cerebral glucose metabolism rate (Candatum-putamen, non-focal side, 200 mg/kg i.v.): ↓↓
Effect on local cerebral glucose metabolism rate (Cerebellar cortex, focal side, 50 mg/kg i.v.): →
Effect on local cerebral glucose metabolism rate [7]: →
Local glucose metabolism rate [7]: 47.2 ± 2.5 µmol/100 g/min
Effect on local cerebral glucose metabolism rate (Cerebellar cortex, focal side, 200 mg/kg i.v.): →
Effect on local cerebral glucose metabolism rate (Cerebellar cortex, non-focal side, 50 mg/kg i.v.): →
Effect on local cerebral glucose metabolism rate [8]: ↓
Local glucose metabolism rate [8]: 46.1 ± 2.1 µmol/100 g/min
Effect on local cerebral glucose metabolism rate (Cerebellar cortex, non-focal side, 200 mg/kg i.v.): →
Effect on local cerebral glucose metabolism rate (Corpus callosum, focal side, 50 mg/kg i.v.): →
Effect on local cerebral glucose metabolism rate [9]: →
Local glucose metabolism rate [9]: 21.9 ± 1.1 µmol/100 g/min
Effect on local cerebral glucose metabolism rate (Corpus callosum, focal side, 200 mg/kg i.v.): →
Effect on local cerebral glucose metabolism rate (Corpus callosum, non-focal side, 50 mg/kg i.v.): →
Effect on local cerebral glucose metabolism rate [10]: →
Local glucose metabolism rate [10]: 21.1 ± 1.1 µmol/100 g/min
Effect on local cerebral glucose metabolism rate (Corpus callosum, non-focal side, 200 mg/kg i.v.): →
Effect on local cerebral glucose metabolism rate (Frontal lobe cortex, focal side, 50 mg/kg i.v.): →
Effect on local cerebral glucose metabolism rate [11]: ↓
Local glucose metabolism rate [11]: 81.8 ± 5.7 µmol/100 g/min
Effect on local cerebral glucose metabolism rate (Frontal lobe cortex, focal side, 200 mg/kg i.v.): ↓
Effect on local cerebral glucose metabolism rate (Frontal lobe cortex, non-focal side, 50 mg/kg i.v.): →
Effect on local cerebral glucose metabolism rate [12]: ↓
Local glucose metabolism rate [12]: 65.7 ± 3.6 µmol/100 g/min
Effect on local cerebral glucose metabolism rate (Frontal lobe cortex, non-focal side, 200 mg/kg i.v.): ↓
Effect on local cerebral glucose metabolism rate (Hypothalamaus, focal side, 50 mg/kg i.v.): →
Effect on local cerebral glucose metabolism rate [13]: ↓
Local glucose metabolism rate [13]: 70.6 ± 4.7 µmol/100 g/min
Effect on local cerebral glucose metabolism rate (Hypothalamaus, focal side, 200 mg/kg i.v.): ↓
Effect on local cerebral glucose metabolism rate (Hypothalamaus, non-focal side, 50 mg/kg i.v.): →
Effect on local cerebral glucose metabolism rate [14]: →↓
Local glucose metabolism rate [14]: 58.5 ± 4.5 µmol/100 g/min
Effect on local cerebral glucose metabolism rate (Hypothalamaus, non-focal side, 200 mg/kg i.v.): ↓
Effect on local cerebral glucose metabolism rate (Occipital lobe cortex, focal side, 50 mg/kg i.v.): →
Effect on local cerebral glucose metabolism rate [15]: →↓
Local glucose metabolism rate [15]: 139 ± 5.6 µmol/100 g/min
Effect on local cerebral glucose metabolism rate (Occipital lobe cortex, focal side, 200 mg/kg i.v.): ↓
Effect on local cerebral glucose metabolism rate (Occipital lobe cortex, non-focal side, 50 mg/kg i.v.): →
Effect on local cerebral glucose metabolism rate [16]: →↓
Local glucose metabolism rate [16]: 78.6 ± 5.8 µmol/100 g/min
Effect on local cerebral glucose metabolism rate (Occipital lobe cortex, non-focal side, 200 mg/kg i.v.): ↓
Effect on local cerebral glucose metabolism rate (Parietal lobe cortex, focal side, 50 mg/kg i.v.): →
Effect on local cerebral glucose metabolism rate [17]: →↓
Local glucose metabolism rate [17]: 109 ± 10.6 µmol/100 g/min
Effect on local cerebral glucose metabolism rate (Parietal lobe cortex, focal side, 200 mg/kg i.v.): ↓
Effect on local cerebral glucose metabolism rate (Parietal lobe cortex, non-focal side, 50 mg/kg i.v.): →
Effect on local cerebral glucose metabolism rate [18]: →↓
Local glucose metabolism rate [18]: 72.1 ± 4.9 µmol/100 g/min
Effect on local cerebral glucose metabolism rate (Parietal lobe cortex, non-focal side, 200 mg/kg i.v.): ↓
Effect on local cerebral glucose metabolism rate (Sensorimotor area cortex, focal side, 50 mg/kg i.v.): →
Effect on local cerebral glucose metabolism rate [19]: →
Local glucose metabolism rate [19]: 139 ± 9 µmol/100 g/min
Effect on local cerebral glucose metabolism rate (Sensorimotor area cortex, focal side, 200 mg/kg i.v.): ↓
Effect on local cerebral glucose metabolism rate (Sensorimotor area cortex, non-focal side, 50 mg/kg i.v.): →
Effect on local cerebral glucose metabolism rate [20]: ↓
Local glucose metabolism rate [20]: 73.4 ± 4.7 µmol/100 g/min
Effect on local cerebral glucose metabolism rate (Sensorimotor area cortex, non-focal side, 200 mg/kg i.v.): ↓
Effect on local cerebral glucose metabolism rate (Septal area, focal side, 50 mg/kg i.v.): →
Effect on local cerebral glucose metabolism rate [21]: ↓
Local glucose metabolism rate [21]: 117 ± 22.7 µmol/100 g/min
Effect on local cerebral glucose metabolism rate (Septal area, focal side, 200 mg/kg i.v.): ↓↓
Effect on local cerebral glucose metabolism rate (Septal area, non-focal side, 50 mg/kg i.v.): →
Effect on local cerebral glucose metabolism rate [22]: ↓↓
Local glucose metabolism rate [22]: 56.9 ± 3.3 µmol/100 g/min
Effect on local cerebral glucose metabolism rate (Septal area, non-focal side, 200 mg/kg i.v.): ↓↓
Effect on local cerebral glucose metabolism rate (Substantia nigra, focal side, 50 mg/kg i.v.): →
Effect on local cerebral glucose metabolism rate [23]: ↓
Local glucose metabolism rate [23]: 77.6 ± 6.8 µmol/100 g/min
Effect on local cerebral glucose metabolism rate (Substantia nigra, focal side, 200 mg/kg i.v.): ↓
Effect on local cerebral glucose metabolism rate (Substantia nigra, non-focal side, 50 mg/kg i.v.): →
Effect on local cerebral glucose metabolism rate [24]: ↓
Local glucose metabolism rate [24]: 45.9 ± 2.7 µmol/100 g/min
Effect on local cerebral glucose metabolism rate (Substantia nigra, non-focal side, 200 mg/kg i.v.): ↓
Effect on local cerebral glucose metabolism rate (Temporal lobe cortex, focal side, 50 mg/kg i.v.): →
Effect on local cerebral glucose metabolism rate [25]: →↓
Local glucose metabolism rate [25]: 103 ± 6.2 µmol/100 g/min
Effect on local cerebral glucose metabolism rate (Temporal lobe cortex, focal side, 200 mg/kg i.v.): ↓
Effect on local cerebral glucose metabolism rate (Temporal lobe cortex, non-focal side, 50 mg/kg i.v.): →
Effect on local cerebral glucose metabolism rate [26]: ↓
Local glucose metabolism rate [26]: 67.8 ± 3.5 µmol/100 g/min
Effect on local cerebral glucose metabolism rate (Temporal lobe cortex, non-focal side, 200 mg/kg i.v.): ↓
Effect on local cerebral glucose metabolism rate (Thalamus, focal side, 50 mg/kg i.v.): →
Effect on local cerebral glucose metabolism rate [27]: ↓
Local glucose metabolism rate [27]: 90.5 ± 3.8 µmol/100 g/min
Effect on local cerebral glucose metabolism rate (Thalamus, focal side, 200 mg/kg i.v.): ↓↓
Effect on local cerebral glucose metabolism rate (Thalamus, non-focal side, 50 mg/kg i.v.): ↓
Effect on local cerebral glucose metabolism rate [28]: ↓↓
Local glucose metabolism rate [28]: 72.3 ± 2.8 µmol/100 g/min
Effect on local cerebral glucose metabolism rate (Thalamus, non-focal side, 200 mg/kg i.v.): ↓↓
Effect on local cerebral glucose metabolism rate (hippocampus, focal side, 50 mg/kg i.v.): →↓
Effect on local cerebral glucose metabolism rate [29]: ↓
Local glucose metabolism rate [29]: 184 ± 7.1 µmol/100 g/min
Effect on local cerebral glucose metabolism rate (hippocampus, focal side, 200 mg/kg i.v.): ↓↓
Effect on local cerebral glucose metabolism rate (hippocampus, non-focal side, 50 mg/kg i.v.): ↓
Effect on local cerebral glucose metabolism rate [30]: ↓↓
Local glucose metabolism rate [30]: 87.2 ± 8.9 µmol/100 g/min
Effect on local cerebral glucose metabolism rate (hippocampus, non-focal side, 200 mg/kg i.v.): ↓↓
